Experimental data as given in US4762823A, “Nucleosides of 5-monofluoromethyluracil and 5-difluoromethyluracil” (Sloan-Kettering Institute for Cancer Research, priority 1985, dated 1988).

Key:
[1] = neutral aqueous media; Mertes, et al.; cited from earlier work
many tumor systems = details: Heidelberger, 1965; 1970; cited from earlier work
herpes simplex = details: cited from earlier work
[2] = cited from earlier work
[3] = Direct cellular cytotoxicity in uninfected control wells; format: cell-based, human; details: foreskin cell monolayers; uninfected human foreskin monolayers; tenfold dilutions; 2 days; read-out: Toxic Concentration
Method: (§1) Each of the nucleosides was initially dissolved in a diluent containing 60% propylene glycol and 10% EtOH; subsequent dilutions used maintenance culture medium. Agents were assessed at tenfold dilutions with final concentrations ranging from 10,000 to 0.01 micromolar. Confluent human foreskin monolayers were maintained in 96-well microtiter plates using Eagle's Minimal Essential Medium supplemented with 2% fetal bovine serum, antibiotics and glutamine using standard methods.^40 Prior to virus inoculation, the medium was removed from each well and replaced with 100 μL of agent diluted in maintenance medium with differing concentrations in each horizontal row, beginning with the highest concentration in the upper row, with subsequent tenfold dilutions in the next rows and the last (control) row fed with agent-free maintenance medium. The virus inocula were then added, suspended in 100 μL of […] medium. A high-dose inoculum which induced nearly confluent (100%) cytopathic effect (CPE) two days later was added to the first five vertical columns of the plate (1-5) and, similarly, a low-dose inoculum inducing approximately 50% CPE in each well two days later was added to the next five vertical columns (6-10). To the last two columns, virus-free medium was added to serve as uninfected control wells in order to assess direct cellular cytotoxicity at each agent dilution. The plates were then incubated at 36.5° C. in 5% CO2 in air for two days, at which time they were read. The cytopathology of each well was read using an inverted microscope and scored from 0 to 4 (0=no CPE and 4=>95% CPE); for marginal or equivocal readings a+ or - is affixed to each score. […] The mean score of each five wells in a row receiving a given agent dilution and virus inoculum was then calculated and compared with an appropriate control row receiving no agent. […] When the value fell between two rows, simple arithmetic interpolation was done to calculate the agent concentrate at the point on a slope between the mean scores in the rows above and below this point. The IC values of each agent using the high and low virus inocula were then averaged yielding a final mean IC which was expressed as a micromolar drug concentration.

HSV-2 = assay: Antiherpes activity, inhibition of cytopathic effect (CPE), HSV-2; format: cell-based; details: Human alphaherpesvirus 2, 48 h, human foreskin monolayers, mean IC of high and low virus inocula, CPE score lowered by 10 scoring units vs control, 2 days, read-out: Inhibitory Concentration (μM) HSV-2
Method: as §1

HSV-1 = assay: Antiherpes activity, inhibition of cytopathic effect (CPE), HSV-1; format: cell-based; details: Human alphaherpesvirus 1, 48 h, human foreskin monolayers, mean IC of high and low virus inocula, CPE score lowered by 10 scoring units vs control, 2 days, read-out: Inhibitory Concentration (μM) HSV-1
Method: as §1

[4] = system: human foreskin monolayers; assay: Direct cellular cytotoxicity in uninfected control wells; format: cell-based; details: statement in words on Table 1
Method: as §1

herpes = assay: Antiherpes activity; format: cell-based; details: statement in words on Table 1
Method: Each of the nucleosides was initially dissolved in a diluent containing 60% propylene glycol and 10% EtOH; subsequent dilutions used maintenance culture medium. Agents were assessed at tenfold dilutions with final concentrations ranging from 10,000 to 0.01 micromolar. […] The plates were then incubated at 36.5° C. in 5% CO2 in air for two days, at which time they were read. The cytopathology of each well was read using an inverted microscope and scored from 0 to 4 (0=no CPE and 4=>95% CPE); for marginal or equivocal readings a+ or - is affixed to each score. […] The mean score of each five wells in a row receiving a given agent dilution and virus inoculum was then calculated and compared with an appropriate control row receiving no agent. […] The IC values of each agent using the high and low virus inocula were then averaged yielding a final mean IC which was expressed as a micromolar drug concentration.

Row | Structure (SMILES) | MCC at 48 h [3] [mM] | IC (CPE score lowered by 10 units) (HSV-2) [µM] | IC (CPE score lowered by 10 units) (HSV-1) [µM] | further results
1 | O=c1[nH]cc(C(F)F)c(=O)[nH]1 [5-Difluoromethyluracil] |  |  |  | lability [1]: extremely labile in neutral aqueous media
2 | O=c1[nH]c(=O)n([C@H]2C[C@H](O)[C@@H](CO)O2)cc1C(F)(F)F [F3 TDR, 1-(2'-deoxy-β-D-erythropentofuranosyl)-5-trifluoromethyluracil] |  |  |  | activity against many tumor systems (many tumor systems): has shown activity; activity against herpes simplex (herpes simplex; Heidelberger, 1965, 1970): has shown activity; antiherpetic (reported) (herpes simplex; reported): antiherpetic; cytotoxic (reported) [2]: very cytotoxic
3 | Cc1cn([C@@H]2O[C@H](CO)[C@@H](O)[C@@H]2F)c(=O)[nH]c1=O [FMAU, 1-(2-Deoxy-2-fluoro-β-D-arabinofuranosyl)thymine, reference compound] | 1 | 0.05 | 0.1 | 
4 | CC(=O)OC[C@H]1O[C@@H](n2cc(CF)c(=O)[nH]c2=O)[C@@H](F)[C@@H]1OC(C)=O [R=CH2 F, R^1=Ac, X=F, 1-(3,5-Di-0-acetyl-2-deoxy-2-fluoro-β-D-arabinofuranosyl)-5-monofluoromethyluracil] | 1 | 5.19 | 2.46 | 
5 | CC(=O)OC[C@H]1O[C@@H](n2cc(CF)c(=O)[nH]c2=O)C[C@@H]1OC(C)=O [R=CH2 F, R^1=Ac, X=H, 1-(3',5'-di-0-acetyl-β-D-erythropentofuranosyl)-5-monofluoromethyluracil] | 1 | > 100 | > 100 | 
6 | O=c1[nH]c(=O)n([C@@H]2O[C@H](CO)[C@@H](O)[C@@H]2F)cc1CF [R=CH2 F, R^1=H, X=F, 1-(2'-Deoxy-2'-fluoro-β-D-arabinofuranosyl)-5-monofluoromethyluracil] | 1 | 0.18 | 0.21 | 
7 | O=c1[nH]c(=O)n([C@H]2C[C@H](O)[C@@H](CO)O2)cc1CF [R=CH2 F, R^1=H, X=H, 2'-deoxy-5-monofluoromethyluridine] | 1 | > 100 | > 100 | 
8 | CC(=O)OC[C@H]1O[C@@H](n2cc(C)c(=O)[nH]c2=O)[C@@H](F)[C@@H]1OC(C)=O [R=CH3, R^1=Ac, X=F, 1-(3,5-di-0-acetyl-2-deoxy-2-fluoro-β-D-arabinofuranosyl)thymine, reference compound] | 1 | 1.23 | 0.44 | 
9 | CC(=O)OC[C@H]1O[C@@H](n2cc(C(F)F)c(=O)[nH]c2=O)[C@@H](F)[C@@H]1OC(C)=O [R=CHF2, R^1=Ac, X=F] | 1 | 2.16 | 0.71 | 
10 | CC(=O)OC[C@H]1O[C@@H](n2cc(C(F)F)c(=O)[nH]c2=O)C[C@@H]1OC(C)=O [R=CHF2, R^1=Ac, X=H, 1-(3',5'-Di-0-acetyl-2'-deoxy-β-D-erythropentofuranosyl)-5-difluoromethyluracil] | 1 | 25.1 | 17 | cytotoxicity [4]: without serious cytotoxicity; antiherpes activity (herpes): very potent antiherpes activity
11 | O=c1[nH]c(=O)n([C@@H]2O[C@H](CO)[C@@H](O)[C@@H]2F)cc1C(F)F [R=CHF2, R^1=H, X=F, 1-(2'-Deoxy-2'-fluoro-β-D-arabinofuranosyl)-5-difluoromethyluracil] | 1 | 1.04 | 0.48 | 
12 | O=c1[nH]c(=O)n([C@H]2C[C@H](O)[C@@H](CO)O2)cc1C(F)F [R=CHF2, R^1=H, X=H, 2'-Deoxy-5-difluoromethyluridine] | 1 | 1.66 | 1.4 | cytotoxicity [4]: without serious cytotoxicity; antiherpes activity (herpes): very potent antiherpes activity
